Laboratory results from patent US5232930A, “2-heteroaryl-substituted benzodioxoic having 5-lipoxygenase inhibitory activity” (Imperial Chemical Industries PLC, priority 1991, dated 1993).

Assays:
5-LO [1] = target: T1, 5-LO (Homo sapiens, UniProt P09917); experiment: test a) in vitro heparinised human blood, calcium ionophore A23187 challenge, LTB4 radioimmunoassay; assay type: cell-based
T1 construct: incubating a test compound with heparinised human blood, prior to challenge with the calcium ionophore A23187; from tissue; host or cells: heparinised human blood (endogenous enzyme of the blood cells)
T1 sequence (P09917 1-674): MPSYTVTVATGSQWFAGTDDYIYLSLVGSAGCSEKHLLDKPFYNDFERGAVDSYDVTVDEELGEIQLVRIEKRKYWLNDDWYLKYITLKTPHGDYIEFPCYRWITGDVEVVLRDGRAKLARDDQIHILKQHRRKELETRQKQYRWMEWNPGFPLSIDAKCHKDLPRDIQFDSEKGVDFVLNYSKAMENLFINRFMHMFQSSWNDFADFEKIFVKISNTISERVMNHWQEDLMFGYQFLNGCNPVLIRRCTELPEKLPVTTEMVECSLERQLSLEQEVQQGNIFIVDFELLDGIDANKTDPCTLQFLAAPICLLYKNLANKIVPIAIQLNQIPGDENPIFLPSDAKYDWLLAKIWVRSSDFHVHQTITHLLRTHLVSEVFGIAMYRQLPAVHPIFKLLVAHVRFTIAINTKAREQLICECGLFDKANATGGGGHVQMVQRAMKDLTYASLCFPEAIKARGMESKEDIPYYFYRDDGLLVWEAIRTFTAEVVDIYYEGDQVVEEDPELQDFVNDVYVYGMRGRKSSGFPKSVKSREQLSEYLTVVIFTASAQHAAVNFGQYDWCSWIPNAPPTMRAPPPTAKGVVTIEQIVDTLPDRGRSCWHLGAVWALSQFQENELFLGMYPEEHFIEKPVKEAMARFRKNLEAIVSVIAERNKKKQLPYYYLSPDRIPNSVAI
Protocol: (§1) As stated previously, the benzodioxole derivatives of the formula I are inhibitors of the enzyme 5-LO.
a) An in vitro assay system involving incubating a test compound with heparinised human blood, prior to challenge with the calcium ionophore A23187 and the indirectly measuring the inhibitory effects on 5-LO by assaying the amount of LTB4 using specific radioimmunoassays described by Carey and Forder (F. Carey and R.A. Forder, Prostaglandins Leukotrienes Med., 1986, 22, 57; Prostaglandins, 1984, 28, 666; Brit. J. Pharmacol. 1985, 84, 34P) which involve the use of a protein-LTB4 conjugate produced using the procedure of Young et alia (Prostaglandins, 1983, 26(4), 605-613). The effects of a test compound on the enzyme cyclooxygenase (which is involved in the alternative metabolic pathway for arachidonic acid and gives rise to prostaglandins, thromboxanes and related metabolites) may be measured at the same time using the specific radioimmunoassay for thromboxane B2 (T×B2) described by Carey and Forder (see above). This test provides an indication of the effects of a test compound against 5-LO and also cyclooxygenase in the presence of blood cells and proteins. It permits the selectivity of the inhibitory effect on 5-LO or cyclooxygenase to be assessed.

5-LO [2] = target: T2, 5-LO (Rattus norvegicus, UniProt P12527); experiment: test c) in vivo zymosan-induced LTB4 liberation in rat air pouch; details: oral, male rats, 3 hours
T2 construct: liberation of LTB4 induced by zymosan within an air pouch generated within the subcutaneous tissue of the back of male rats; from tissue; host or cells: live male rats, zymosan-inflamed subcutaneous air pouch (endogenous enzyme)
T2 sequence (P12527 1-673): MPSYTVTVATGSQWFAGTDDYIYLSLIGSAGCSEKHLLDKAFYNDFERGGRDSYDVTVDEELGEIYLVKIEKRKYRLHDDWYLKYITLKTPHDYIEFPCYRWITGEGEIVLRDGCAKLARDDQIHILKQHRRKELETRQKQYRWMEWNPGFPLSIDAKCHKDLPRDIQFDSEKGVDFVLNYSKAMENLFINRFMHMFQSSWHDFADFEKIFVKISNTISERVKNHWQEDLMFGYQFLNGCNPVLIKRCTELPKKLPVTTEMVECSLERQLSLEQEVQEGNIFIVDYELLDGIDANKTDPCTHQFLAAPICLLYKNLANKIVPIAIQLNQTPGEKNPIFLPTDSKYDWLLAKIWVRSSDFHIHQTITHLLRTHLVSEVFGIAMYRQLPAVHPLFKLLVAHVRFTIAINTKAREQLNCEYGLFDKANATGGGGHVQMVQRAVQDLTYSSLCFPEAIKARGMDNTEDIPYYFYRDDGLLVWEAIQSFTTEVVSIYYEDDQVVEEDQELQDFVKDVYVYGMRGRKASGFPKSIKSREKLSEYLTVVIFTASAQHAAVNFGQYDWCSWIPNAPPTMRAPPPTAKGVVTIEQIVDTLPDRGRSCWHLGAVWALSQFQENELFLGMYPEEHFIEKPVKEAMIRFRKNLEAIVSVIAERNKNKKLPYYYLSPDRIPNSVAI
Protocol: as §1
c) An in vivo system involving measuring the effects of a test compound administered orally against the liberation of LTB4 induced by zymosan within an air pouch generated within the subcutaneous tissue of the back of male rats. The rats are anaesthetised and air pouches are formed by the injection of sterile air (20 ml). A further injection of air (10 ml) is similarly given after 3 days. At 6 days after the initial air injection the test compound is administered (usually orally as the suspension produced when a solution of the test compound in dimethylsulphoxide is added to hydroxypropylmethylcellulose), followed by the intrapouch injection of zymosan (1 ml of a 1% suspension in physiological saline). After 3 hours the rats are killed, the air pouches are lavaged with physiological saline, and the specific radioimmunoassay described above is used to assay LTB4 in the washings. This test provides an indication of inhibitory effects against 5-LO in an inflammatory milieu.

- IC50 (5-LO [1]): 380 nM
- ED50 (5-LO [2]): < 0.5 mg/kg
Structure (SMILES): COC1(c2ccc3c(c2)OC(c2ccc4c(ccc(=O)n4C)c2)O3)CCOCC1 (centres unmarked) [5-(4-methoxytetrahydropyran-4-yl)-2-(1-methyl-2-oxo-1,2-dihydroquinolin-6-yl)benzo-1,3-dioxole]
